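48-hour exposure; five concentrations; linearly interpolated endpoints. GI50 marks 50% less growth.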 Calls of active or inactive are those of the source. Cut-off read from the data, not from the text of the source: active = GI50 up to about 1.1 µM and inactive = higher. *1 amine or outer side, *2 acyl side, *3 side chain or, on linkers, in order; H or OH if unused. Where a SMILES comes first, the peptide text is derived from it. Bridges are numbered along the chain shown (N, C = ends). Roman numbers before positions name the chains, in order. [ ]: non-standard residue; d: D form. Actinocin(1to9) = Cc1c2oc3c(C)ccc(C(=O)[*:2])c3nc-2c(C(=O)[*:1])c(N)c1=O; NMeV = CN[CH](C(=O)O)C(C)C; Sar = CNCC(=O)O

Test systems include SK-OV-3; BT-549; SF-268; TK-10; HOP-92; RXF 393; 786-0; OVCAR-5; SN12C; NCI-H460; LOX IMVI; HT-29; SR; U-251; HCT-116; PC-3; UO-31; HCC 2998.
Assay in all cases: NCI tumour cell line growth inhibition, 48 h

Consider `N#CC1(O)CCCCCCCCCCC1`, for which the GI50 in the experiment on SK-OV-3, with BT-549, with SF-268, in the experiment on TK-10, in the experiment with HOP-92 and in the experiment with RXF 393 was > 100 µM (inactive) throughout. The GI50 in the experiment with 786-0, in the experiment with OVCAR-5, in the experiment with SN12C, in the experiment with NCI-H460, with LOX IMVI and in the experiment on HT-29 was > 100 µM (inactive) each time. The GI50 with SR, in the experiment with U-251, in the experiment on HCT-116, with PC-3, in the experiment with UO-31 and with HCC 2998 was > 100 µM (inactive) each time.

On to `Nc1ccc2c(c1)C(=O)N1CCC[C@H]1C(=O)N2`, for which the GI50 with SK-OV-3, in the experiment with BT-549, in the experiment with SF-268, with TK-10, in the experiment on HOP-92 and in the experiment on RXF 393 was > 100 µM (inactive) throughout. Further, the GI50 with 786-0, in the experiment on OVCAR-5, in the experiment on SN12C, with NCI-H460, with LOX IMVI and with HT-29 was > 100 µM (inactive) each time. For the same molecule, the GI50 in the experiment with SR, with U-251, in the experiment with HCT-116, with PC-3, in the experiment on UO-31 and with HCC 2998 was > 100 µM (inactive) each time.

Turning to `Cc1ccc(SC(=O)N2C(=S)N=C(NC3CCCCC3)C23CCCCC3)cc1`, the GI50 was > 100 µM (inactive) in the experiment with SK-OV-3; 57.5 µM (inactive) with BT-549; > 100 µM (inactive) in the experiment with SF-268; 25.2 µM (inactive) in the experiment on TK-10; > 100 µM (inactive) in the experiment on HOP-92; 70 µM (inactive) in the experiment with RXF 393. The GI50 in the experiment with 786-0 is > 100 µM (inactive); in the experiment with OVCAR-5, > 100 µM (inactive); with SN12C, > 100 µM (inactive); in the experiment on NCI-H460 it was 81.3 µM (inactive); in the experiment with LOX IMVI, 95.5 µM (inactive); in the experiment with HT-29, 57.9 µM (inactive). The GI50 is 57.7 µM (inactive) with SR; 95.3 µM (inactive) in the experiment on U-251; > 100 µM (inactive) in the experiment with HCT-116; 44.6 µM (inactive) with PC-3; 46.6 µM (inactive) in the experiment with UO-31; > 100 µM (inactive) with HCC 2998.

For `COC(=O)c1c(O)ccc2c1c1c(n2C)C(=O)c2ccccc2C1=O`, the GI50 with SK-OV-3 is 6.19 µM (inactive); in the experiment with BT-549 it was 10.4 µM (inactive); in the experiment on SF-268 it was 13.8 µM (inactive); in the experiment with TK-10, 26.7 µM (inactive); in the experiment on HOP-92, 2.28 µM (inactive); in the experiment on RXF 393, 15.4 µM (inactive). The GI50 with 786-0 is 15.3 µM (inactive); in the experiment on OVCAR-5, 85.3 µM (inactive); with SN12C, 11.9 µM (inactive); in the experiment on NCI-H460, 8 µM (inactive); in the experiment with LOX IMVI it was 16.7 µM (inactive); in the experiment on HT-29, 78.2 µM (inactive). The GI50 in the experiment on SR was 16.2 µM (inactive); in the experiment with U-251 it was 15.7 µM (inactive); in the experiment on HCT-116 it was 12.2 µM (inactive); in the experiment with PC-3 it was 23.3 µM (inactive); in the experiment with UO-31 it was 6.75 µM (inactive); in the experiment with HCC 2998, 11.3 µM (inactive).

`Cc1ccc(/N=C2\OP(=O)(Nc3ccc(C)cc3)Oc3ccccc32)cc1` (configuration not stated): the GI50 with SK-OV-3 was > 100 µM (inactive); with BT-549, > 100 µM (inactive); in the experiment on SF-268, > 100 µM (inactive); in the experiment with TK-10 it was > 100 µM (inactive); in the experiment on HOP-92, 30 µM (inactive); in the experiment on RXF 393 it was 81.5 µM (inactive). The GI50 in the experiment on 786-0, in the experiment with OVCAR-5, in the experiment with SN12C, in the experiment with NCI-H460, in the experiment with LOX IMVI and with HT-29 was > 100 µM (inactive) throughout. The GI50 is > 100 µM (inactive) with SR; > 100 µM (inactive) in the experiment with U-251; 87.9 µM (inactive) in the experiment with HCT-116; > 100 µM (inactive) with PC-3; 97.7 µM (inactive) with UO-31; > 100 µM (inactive) in the experiment with HCC 2998.

As to `Cc1cccc(-c2cc(O)c3cc(C)cnc3n2)c1`, the GI50 in the experiment on SK-OV-3 was 0.272 µM (active); in the experiment with BT-549, 0.292 µM (active); with SF-268 it was 0.724 µM (active); in the experiment on TK-10 it was 5.52 µM (inactive); in the experiment on HOP-92 it was 11.7 µM (inactive); with RXF 393, 0.229 µM (active). Moreover, the GI50 in the experiment on 786-0 was 0.361 µM (active); in the experiment with OVCAR-5, 0.414 µM (active); in the experiment with SN12C it was 0.571 µM (active); in the experiment with NCI-H460, 0.311 µM (active); with LOX IMVI, 0.478 µM (active); in the experiment with HT-29, 0.15 µM (active). Moreover, the GI50 is 0.0368 µM (active) in the experiment with SR; 0.147 µM (active) in the experiment on U-251; 0.118 µM (active) in the experiment with HCT-116; 0.189 µM (active) in the experiment on PC-3; 0.745 µM (active) in the experiment on UO-31; 0.44 µM (active) with HCC 2998.

As to `CCC(C)C1NC(=O)C(NC(=O)c2c3nc4c(C(=O)NC5C(=O)NC(C(C)C)C(=O)N6CCCC6C(=O)N(C)CC(=O)N(C)C(C(C)C)C(=O)OC5C)ccc(C)c4oc-3c(C)c(=O)c2N)C(C)OC(=O)C(C(C)C)N(C)C(=O)CN(C)C(=O)C2CCCN2C1=O` (configuration not stated) (I: TIP[Sar][NMeV] / II: TVP[Sar][NMeV]; ester I:1-I:C, II:1-II:C; linker I:N-II:N via Actinocin(1to9); configuration not given here), the GI50 is 0.0152 µM (active) with SK-OV-3; 0.00247 µM (active) in the experiment with BT-549; 0.000916 µM (active) in the experiment with SF-268; 0.0137 µM (active) in the experiment on TK-10; 0.00161 µM (active) in the experiment on HOP-92; 0.01 µM (active) with RXF 393. Moreover, the GI50 in the experiment on 786-0 is 0.00042 µM (active); with OVCAR-5, 0.000586 µM (active); in the experiment with SN12C, 0.000388 µM (active); in the experiment on NCI-H460, < 0.0001 µM (active); in the experiment with LOX IMVI it was < 0.0001 µM (active); with HT-29 it was < 0.0001 µM (active). Moreover, the GI50 with SR is 0.000244 µM (active); with U-251, < 0.0001 µM (active); in the experiment on HCT-116, < 0.0001 µM (active); in the experiment with PC-3, 0.000346 µM (active); in the experiment on UO-31, 0.0787 µM (active); in the experiment on HCC 2998, 0.237 µM (active).

For `CC(=O)OCC1OC(n2c(C#N)cc(=O)[nH]c2=O)CC1OC(C)=O` (configuration not stated), the GI50 in the experiment on SK-OV-3, in the experiment on BT-549, with SF-268, in the experiment with TK-10, with HOP-92 and with RXF 393 was > 100 µM (inactive) in each case. In addition, the GI50 with 786-0, with OVCAR-5, in the experiment on SN12C, with NCI-H460, with LOX IMVI and in the experiment with HT-29 was > 100 µM (inactive) throughout. In addition, the GI50 with SR was > 100 µM (inactive); in the experiment with U-251, > 100 µM (inactive); in the experiment on HCT-116, > 100 µM (inactive); with PC-3 it was > 100 µM (inactive); in the experiment with UO-31, > 100 µM (inactive); in the experiment with HCC 2998, > 10 µM (inactive).

On to `O=C(Nc1nn(C(=O)c2cccnc2)c(=O)s1)c1ccc(Cl)cc1`, for which the GI50 is 56.2 µM (inactive) with SK-OV-3; > 100 µM (inactive) with BT-549; 20.7 µM (inactive) in the experiment with SF-268; 76.6 µM (inactive) in the experiment on TK-10; 61.5 µM (inactive) in the experiment on HOP-92; 15.6 µM (inactive) with RXF 393. The GI50 with 786-0, in the experiment on OVCAR-5, in the experiment on SN12C, with NCI-H460, in the experiment with LOX IMVI and with HT-29 was > 100 µM (inactive) throughout. The GI50 with SR is > 100 µM (inactive); in the experiment with U-251 it was 74 µM (inactive); in the experiment with HCT-116, 84.5 µM (inactive); in the experiment on PC-3, 61.1 µM (inactive); in the experiment with UO-31, 1.8 µM (inactive); in the experiment with HCC 2998, > 100 µM (inactive).

Turning to `CCn1c(SCc2nnc(Nc3ccccc3)s2)nc2ccccc2c1=O`, the GI50 in the experiment with SK-OV-3 was 2.62 µM (inactive); in the experiment on BT-549 it was 5.24 µM (inactive); with SF-268, 3.98 µM (inactive); with TK-10 it was 3.45 µM (inactive); in the experiment with HOP-92, 2.57 µM (inactive); with RXF 393 it was 4.04 µM (inactive). In addition, the GI50 in the experiment with 786-0 was 2.02 µM (inactive); with OVCAR-5, 6.14 µM (inactive); in the experiment with SN12C, 4.23 µM (inactive); in the experiment with NCI-H460, 1.45 µM (inactive); in the experiment with LOX IMVI, 5.02 µM (inactive); with HT-29 it was 2.95 µM (inactive). The GI50 is 23.7 µM (inactive) in the experiment with SR; 2.24 µM (inactive) with U-251; 1.95 µM (inactive) in the experiment with HCT-116; 8.79 µM (inactive) in the experiment on PC-3; 3.08 µM (inactive) in the experiment on UO-31; 6.68 µM (inactive) in the experiment with HCC 2998.

On to `CCOC(=O)c1cc2c3c(cc(OC)c2[nH]1)N(C(=O)OCC)CC3`, for which the GI50 in the experiment with SK-OV-3, with BT-549, with SF-268, in the experiment on HOP-92, in the experiment with RXF 393 and in the experiment with 786-0 was > 100 µM (inactive) in each case. Also, the GI50 in the experiment on OVCAR-5 is > 100 µM (inactive); with SN12C, > 100 µM (inactive); with NCI-H460, > 100 µM (inactive); in the experiment on LOX IMVI, > 100 µM (inactive); in the experiment with HT-29 it was > 100 µM (inactive); in the experiment on SR, 86.1 µM (inactive). Moreover, the GI50 in the experiment on U-251, in the experiment with HCT-116, in the experiment with PC-3, with UO-31 and with HCC 2998 was > 100 µM (inactive) throughout.
